From patent publication US8252930B2, “Azaindole derivatives with a combination of partial nicotinic acetyl-choline receptor agonism and dopamine reuptake inhibition” (Solvay Pharmaceuticals B.V., priority 2006, dated 2012)
pIC50: −log10 of the molar value. Structures can show the parent of a compound that is named as a salt. Where two headings read alike, the source gives them in different places.

Legend:
[1] = target: T1, [^3H]-dopamine uptake in rat striatal synaptosomes (Rattus norvegicus, UniProt P23977); experiment: In vitro [3H]-dopamine uptake in rat striatal synaptosomes; assay type: biochemical
T1 construct: a crude synaptosomal fraction (P2) was prepared by homogenization and centrifugation; from tissue; host or cells: rat striatum, crude synaptosomal fraction (P2)
T1 sequence (P23977 whole entry): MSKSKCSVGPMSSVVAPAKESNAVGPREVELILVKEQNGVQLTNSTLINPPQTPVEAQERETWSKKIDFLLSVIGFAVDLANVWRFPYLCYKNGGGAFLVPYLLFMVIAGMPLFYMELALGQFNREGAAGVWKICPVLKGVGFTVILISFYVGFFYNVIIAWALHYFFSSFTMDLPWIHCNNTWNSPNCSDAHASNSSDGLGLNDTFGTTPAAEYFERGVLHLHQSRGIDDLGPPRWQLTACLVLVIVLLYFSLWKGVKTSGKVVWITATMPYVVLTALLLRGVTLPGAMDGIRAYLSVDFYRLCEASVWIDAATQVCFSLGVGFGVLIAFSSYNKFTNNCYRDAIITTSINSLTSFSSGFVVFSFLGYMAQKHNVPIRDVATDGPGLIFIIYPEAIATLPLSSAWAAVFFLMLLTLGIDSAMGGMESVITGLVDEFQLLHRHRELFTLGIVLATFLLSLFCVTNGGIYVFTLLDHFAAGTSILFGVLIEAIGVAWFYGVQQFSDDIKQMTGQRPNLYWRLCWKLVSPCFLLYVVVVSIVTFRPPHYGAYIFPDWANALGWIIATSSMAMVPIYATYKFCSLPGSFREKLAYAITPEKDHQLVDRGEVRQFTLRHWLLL

melting point | SMILES | also measured
144 to 145 °C | c1cnc2[nH]c(C3CCCNC3)cc2c1 (centres unmarked) | 
190 °C | c1cnc2[nH]c(C3CN4CCC3CC4)cc2c1 (centres unmarked) [Compound 21, 3-(1H-Pyrrolo[2,3-b]pyridin-2-yl)-1-aza-bicyclo[2.2.2]octane] | 
 | CN1CCC[C@H]1Cc1c[nH]c2ncccc12 (stereo in doubt) [Compound 99, (S)-3-(1-Methyl-pyrrolidin-2-ylmethyl)-1H-pyrrolo[2,3-b]pyridine] | pIC50 [1]: < 5.00
130 to 131 °C | CN1CCC[C@H]1Cc1cc2cccnc2[nH]1 | 
185 °C | c1cnc2[nH]cc(C3CN4CCC3CC4)c2c1 (centres unmarked) [Compound 16, 3-(1H-Pyrrolo[2,3-b]pyridin-3-yl)-1-aza-bicyclo[2.2.2]octane] | 
> 275 °C (dec.) | C1=C(c2cc3cccnc3[nH]2)CNCC1 (as salt: HCl) [Compound 25, 2-(1,2,5,6-tetrahydro-pyridin-3-yl)-1H-pyrrolo[2,3-b]pyridine] | 
> 250 °C (dec.) | Clc1ccnc2[nH]c(C3CCCNC3)cc12 (centres unmarked) (as salt: HCl) | 
 | c1cnc2[nH]cc(C[C@@H]3CCCN3)c2c1 (stereo in doubt) [Compound 97, (S)-3-Pyrrolidin-2-ylmethyl-1H-pyrrolo[2,3-b]pyridine] | IC50 ([1]; read-out: Functional activity re-uptake [^3H]-Dopamine pIC50 (converted)): > 10 µM
